What follows are molecules tested against T1, SYK kinase (Homo sapiens, UniProt P43405) (assay: SYK assay (OMNIA Kinase Assay, Invitrogen)). Conditions: SYK Activities; 1 mM ATP, 10 μM Omnia Peptide Substrate Tyr 7, 30° C.
T1 construct: purchased Invitrogen, Carlsbad
Format: biochemical
Experimental: In the assay OMNIA® KINASE ASSAY by Invitrogen Corporation (Carlsbad) the effect of invention of a compound on the phosphorylation is determined by measurement of fluorescence intensity of a chelation-enhanced fluorophore called SOX. Upon phosphorylation of the peptide by the kinase of interest, Mg2+ is chelated to form a bridge between the SOX moiety and the phosphate group that is transferred to the specific tyrosine on the peptide. The fluorescence intensity is directly proportional to the amount of peptide phosphorylation.
To the wells of an 384 well small volume plate (Greiner, Frickenhausen) are added (i) the compound under test in 5% DMSO/distilled water (2 μl), (ii) 16 μl of the master mix containing ATP, DTT, Kinase Reaction Buffer, Omina Peptide Substrate Tyr 7 resulting in a final concentration of 1 mM ATP, 0.2 mM DTT and 10 μM Peptide Substrate. The Master Mix and the assay plate was incubated to reaction temperature before the measurement (30° C.). The reaction was started with addition of (iii) 2 μl 4 μg/ml SYK kinase (Invitrogen, Carlsbad). During measurement fluorescence intensitiy readings were collected using a TECAN M1000 at a wavelength of λex 360/λem 485 nm every 30 s for 30 minutes. The reaction velocity was plotted versus the inhibitor concentration to determine the IC50 using XLFit 5.0 (IDBS, Guildford) to fit to a sigmoidal dose response curve.

IC50 [nM]	Compound
< 10	CN1CCC(n2cc(Nc3nc(C4CCC4)nc4cn[nH]c34)cn2)CC1 [Example 206, 5-cyclobutyl-N-(1-(1-methylpiperidin-4-yl)-1H-pyrazol-4-yl)-1H-pyrazolo[4,3-d]pyrimidin-7-amine]
100 to 1000	COCC(COC)n1cc(Nc2nc(-c3cccc(-c4cccnc4)c3)nc3cn[nH]c23)cn1 [Example 467, N-(1-(1,3-dimethoxypropan-2-yl)-1H-pyrazol-4-yl)-5-(3-(pyridin-3-yl)phenyl)-1H-pyrazolo[4,3-d]pyrimidin-7-amine]
< 10	COCCCn1cc(Nc2nc(-c3nc4ccccc4s3)nc3cn[nH]c23)cn1 [Example 412, 5-(benzo[d]thiazol-2-yl)-N-(1-(3-methoxypropyl)-1H-pyrazol-4-yl)-1H-pyrazolo[4,3-d]pyrimidin-7-amine]
10 to 100	CN1CCN(C2CCN(c3ccc(Nc4nc(-c5ccccc5NS(C)(=O)=O)nc5cn[nH]c45)cc3)CC2)CC1 [Example 29, N-(2-(7-((4-(4-(4-methylpiperazin-1-yl)piperidin-1-yl)phenyl)amino)-1H-pyrazolo[4,3-d]pyrimidin-5-yl)phenyl)methanesulfonamide]
< 10	OCCn1cc(Nc2nc(-c3ccco3)nc3cn[nH]c23)cn1 [Example 239, 2-(4-((5-(furan-2-yl)-1H-pyrazolo[4,3-d]pyrimidin-7-yl)amino)-1H-pyrazol-1-yl)ethan-1-ol]
100 to 1000	CC(C)Cn1cc(Nc2nc(-c3cccc(NS(C)(=O)=O)c3)nc3cn[nH]c23)cn1 [Example 261, N-(3-(7-((1-isobutyl-1H-pyrazol-4-yl)amino)-1H-pyrazolo[4,3-d]pyrimidin-5-yl)phenyl)methanesulfonamide]
100 to 1000	c1nn(C2CCOCC2)cc1Nc1nc(C2C3CCCCC32)nc2cn[nH]c12 (stereo not shown) [Example 473, 5-(bicyclo[4.1.0]heptan-7-yl)-N-(1-(tetrahydro-2H-pyran-4-yl)-1H-pyrazol-4-yl)-1H-pyrazolo[4,3-d]pyrimidin-7-amine]
100 to 1000	CC(C)(C)n1cc(Nc2nc(-c3ncco3)nc3cn[nH]c23)cn1 [Example 249, N-(1-(tert-butyl)-1H-pyrazol-4-yl)-5-(oxazol-2-yl)-1H-pyrazolo[4,3-d]pyrimidin-7-amine]
10 to 100	CC(C)n1cc(-c2nc(Nc3ccc(N4CCOCC4)cc3)c3[nH]ncc3n2)cn1 [Example 421, 5-(1-isopropyl-1H-pyrazol-4-yl)-N-(4-morpholinophenyl)-1H-pyrazolo[4,3-d]pyrimidin-7-amine]
10 to 100	CC(=O)N1CCN(c2ccc(Nc3nc(C4CC4)nc4cn[nH]c34)cn2)CC1 [Example 237, 1-(4-(5-((5-cyclopropyl-1H-pyrazolo[4,3-d]pyrimidin-7-yl)amino)pyridin-2-yl)piperazin-1-yl)ethan-1-one]
100 to 1000	c1nn(C2CCNC2)cc1Nc1nc(C2C3CCCCC32)nc2cn[nH]c12 (stereo not shown) [Example 474, 5-(bicyclo[4.1.0]heptan-7-yl)-N-(1-(pyrrolidin-3-yl)-1H-pyrazol-4-yl)-1H-pyrazolo[4,3-d]pyrimidin-7-amine]
100 to 1000	FC(F)(F)Cn1cc(Nc2nc(-c3ccoc3)nc3cn[nH]c23)cn1 [Example 375, 5-(furan-3-yl)-N-(1-(2,2,2-trifluoroethyl)-1H-pyrazol-4-yl)-1H-pyrazolo[4,3-d]pyrimidin-7-amine]
100 to 1000	Fc1cc(Nc2nc(-c3c(F)cccc3F)nc3cn[nH]c23)ccc1N1CCOCC1 [Example 11, 5-(2,6-difluorophenyl)-N-(3-fluoro-4-morpholinophenyl)-1H-pyrazolo[4,3-d]pyrimidin-7-amine]
10 to 100	CC(C)(C#N)n1cc(Nc2nc(-c3ccc4cn[nH]c4c3)nc3cn[nH]c23)cn1 [Example 416, 2-(4-((5-(1H-indazol-6-yl)-1H-pyrazolo[4,3-d]pyrimidin-7-yl)amino)-1H-pyrazol-1-yl)-2-methylpropanenitrile]
100 to 1000	c1cncc(-c2nc(Nc3ccc(N4CCOCC4)cc3)c3n[nH]cc3n2)c1 [Example 162, N-(4-morpholinophenyl)-5-(pyridin-3-yl)-2H-pyrazolo[4,3-d]pyrimidin-7-amine]
100 to 1000	CN1CCN(c2ccc(Nc3nc(-c4ccoc4)nc4cn[nH]c34)cn2)CC1 [Example 108, 5-(furan-3-yl)-N-(6-(4-methylpiperazin-1-yl)pyridin-3-yl)-1H-pyrazolo[4,3-d]pyrimidin-7-amine]
100 to 1000	CC(=O)N1CCN(c2ccc(Nc3nc(-c4cccc(N)c4)nc4cn[nH]c34)cc2)CC1 [Example 14, 1-(4-(4-((5-(3-aminophenyl)-1H-pyrazolo[4,3-d]pyrimidin-7-yl)amino)phenyl)piperazin-1-yl)ethan-1-one]

IC50 [nM]	Compound
10 to 100	CC(C)(C)N1CCC(n2cc(Nc3nc(-c4nc5c(s4)CCCC5)nc4cn[nH]c34)cn2)CC1 [Example 495, N-(1-(1-(tert-butyl)piperidin-4-yl)-1H-pyrazol-4-yl)-5-(4,5,6,7-tetrahydrobenzo[d]thiazol-2-yl)-1H-pyrazolo[4,3-d]pyrimidin-7-amine]
10 to 100	COc1cccc(-c2nc(Nc3cnn(C4CCOCC4)c3)c3[nH]ncc3n2)c1 [Example 409, 5-(3-methoxyphenyl)-N-(1-(tetrahydro-2H-pyran-4-yl)-1H-pyrazol-4-yl)-1H-pyrazolo[4,3-d]pyrimidin-7-amine]
100 to 1000	CC(C)(C)N1CCN(c2ccc(Nc3nc(-c4cccc(NS(C)(=O)=O)c4)nc4cn[nH]c34)cc2)CC1 [Example 39]
100 to 1000	CC(=O)N1CCN(c2ccc(Nc3nc(C4(C)CC4)nc4cn[nH]c34)cc2)CC1 [Example 100, 1-(4-(4-((5-(1-methylcyclopropyl)-1H-pyrazolo[4,3-d]pyrimidin-7-yl)amino)phenyl)piperazin-1-yl)ethan-1-one]
10 to 100	c1nn(C2CCOCC2)cc1Nc1nc(C2CC2)nc2cn[nH]c12 [Example 118, 5-cyclopropyl-N-(1-(tetrahydro-2H-pyran-4-yl)-1H-pyrazol-4-yl)-1H-pyrazolo[4,3-d]pyrimidin-7-amine]
< 10	c1ccc2sc(-c3nc(Nc4cnn(C5CC5)c4)c4[nH]ncc4n3)nc2c1 [Example 410, 5-(benzo[d]thiazol-2-yl)-N-(1-cyclopropyl-1H-pyrazol-4-yl)-1H-pyrazolo[4,3-d]pyrimidin-7-amine]
< 10	CC(C)(C)N1CCN(c2ccc(Nc3nc(-c4ccc5cn[nH]c5c4)nc4cn[nH]c34)cc2)CC1 [Example 45, N-(4-(4-(tert-butyl)piperazin-1-yl)phenyl)-5-(1H-indazol-6-yl)-1H-pyrazolo[4,3-d]pyrimidin-7-amine]
100 to 1000	CC(=O)N1CCC(n2cc(Nc3nc(-c4ncco4)nc4cn[nH]c34)cn2)CC1 [Example 257, 1-(4-(4-((5-(oxazol-2-yl)-1H-pyrazolo[4,3-d]pyrimidin-7-yl)amino)-1H-pyrazol-1-yl)piperidin-1-yl)ethan-1-one]
100 to 1000	c1cc(-c2nc(Nc3ccc(N4CCOCC4)cc3)c3[nH]ncc3n2)no1 [Example 74, 5-(isoxazol-3-yl)-N-(4-morpholinophenyl)-1H-pyrazolo[4,3-d]pyrimidin-7-amine]
100 to 1000	c1ccc(-n2cc(Nc3nc(-c4ccc5cn[nH]c5c4)nc4cn[nH]c34)cn2)nc1 [Example 472, 5-(1H-indazol-6-yl)-N-(1-(pyridin-2-yl)-1H-pyrazol-4-yl)-1H-pyrazolo[4,3-d]pyrimidin-7-amine]
100 to 1000	CC(C)(C#N)n1cc(Nc2nc(C3CC3)nc3cn[nH]c23)cn1 [Example 177, 2-(4-((5-cyclopropyl-1H-pyrazolo[4,3-d]pyrimidin-7-yl)amino)-1H-pyrazol-1-yl)-2-methylpropanenitrile]
100 to 1000	CC1CC1c1nc(Nc2cnn(C3CCOCC3)c2)c2[nH]ncc2n1 (stereo not shown) [Example 103, 5-(2-methylcyclopropyl)-N-(1-(tetrahydro-2H-pyran-4-yl)-1H-pyrazol-4-yl)-1H-pyrazolo[4,3-d]pyrimidin-7-amine]
10 to 100	CN1CCC(n2cc(Nc3nc(-c4nc5ccccc5s4)nc4cn[nH]c34)cn2)CC1 [Example 459, 5-(benzo[d]thiazol-2-yl)-N-(1-(1-methylpiperidin-4-yl)-1H-pyrazol-4-yl)-1H-pyrazolo[4,3-d]pyrimidin-7-amine]
10 to 100	CC(C)n1cc(Nc2nc(-c3ccc4cn[nH]c4c3)nc3cn[nH]c23)cn1 [Example 414, 5-(1H-indazol-6-yl)-N-(1-isopropyl-1H-pyrazol-4-yl)-1H-pyrazolo[4,3-d]pyrimidin-7-amine]
100 to 1000	c1nc(-c2nc(Nc3ccc(N4CCOCC4)cc3)c3[nH]ncc3n2)co1 [Example 48, N-(4-morpholinophenyl)-5-(oxazol-4-yl)-1H-pyrazolo[4,3-d]pyrimidin-7-amine]
10 to 100	CC(C)(C)N1CCN(c2ccc(Nc3nc(-c4cocn4)nc4cn[nH]c34)cc2)CC1 [Example 49, N-(4-(4-(tert-butyl)piperazin-1-yl)phenyl)-5-(oxazol-4-yl)-1H-pyrazolo[4,3-d]pyrimidin-7-amine]
100 to 1000	COc1ccc(Nc2nc(-c3cccc(C(=O)Nc4ccc(-c5cnco5)cc4)c3)nc3cn[nH]c23)cc1OC [Example 319, 3-(7-((3,4-dimethoxyphenyl)amino)-1H-pyrazolo[4,3-d]pyrimidin-5-yl)-N-(4-(oxazol-5-yl)phenyl)benzamide]

From US9637491B2, “Pyrazolo[4,3-D]pyrimidines as kinase inhibitors” (Origenis GmbH, priority 2012, dated 2017)
